Experimental findings from patent publication US10538567B2, “Compounds as peptidic trigonal GLP1/glucagon/GIP receptor agonists” (priority 2016, dated 2020) are described below.

Molecules are shown by their SMILES. Values after ≈ are worked out from the molar mass of the structure shown. Numbered stars: 1 amine (or outer) side, 2 acyl side, 3 side chain; on linkers, the order of the positions; unused ones are H or OH. Square brackets hold non-standard residues; d marks the D form. Side chains are listed from the residue outwards. Peptide text beside a SMILES is read from it. * marks the point of attachment. γGlu = O=C(O)[C@H](CCC(=O)[*:2])N[*:1]; Palmitoyl = CCCCCCCCCCCCCCCC(=O)*; Aib = CC(C)(N)C(=O)O

Series [1] concerns the target T1, human glucagon receptor (Homo sapiens, UniProt P47871).
T1 construct: expressed in transfected cells; host or cells: HEK-293
As to the kind of experiment: cAMP response (HTRF) of HEK-293 cells stably expressing human glucagon receptor. The series is classed as cell-based. Conditions: Table 8; read-out: EC50 hGlucagon R. As for the experimental part: cAMP content of cells was determined using a kit from Cisbio Corp. (cat. no. 62AM4PEJ) based on HTRF (Homogenous Time Resolved Fluorescence). For preparation, cells were split into T175 culture flasks and grown overnight to near confluency in medium (DMEM/10% FBS). Medium was then removed and cells washed with PBS lacking calcium and magnesium, followed by proteinase treatment with accutase (Sigma-Aldrich cat. no. A6964). Detached cells were washed and resuspended in assay buffer (1×HBSS; 20 mM HEPES, 0.1% BSA, 2 mM IBMX) and cellular density determined. They were then diluted to 400000 cells/ml and 25 μl-aliquots dispensed into the wells of 96-well plates. For measurement, 25 μl of test compound in assay buffer was added to the wells, followed by incubation for 30 minutes at room temperature.
Potencies of peptidic compounds at the GLP-1, glucagon and GIP receptors were determined by exposing cells expressing human glucagon receptor (hGlucagon R), human GIP receptor (hGIP-R) or human GLP-1 receptor (hGLP-1 R) to the listed compounds at increasing concentrations and measuring the formed cAMP as described in Methods.
Background: In TR-FRET formats the signal depends on donor and acceptor labels being close together.

Series [2] in a line: Solubility assessment in solubility buffer system A. In kind it is physicochemical. As to conditions: acetate buffer pH 4.5 with m-cresol; acetate buffer pH 4.5, 2.7 mg/ml m-cresol, target 10 mg/ml. The method, then: Prior to the solubility measurement of a peptide batch, its purity was determined through UPLC/MS.
Therefore solutions from solid samples were prepared in a buffer system with a concentration of 10 mg/mL compound based on the previously determined % purity:
Solubility buffer system A) Acetate Buffer pH 4.5, 100 mM sodium acetate trihydrate, 2.7 mg/ml m-Cresol
UPLC-UV was performed after 1 hour of gentle agitation from the supernatant, which was obtained after 15 min of centrifugation at 2500 RCF (relative centrifugal acceleration).
The solubility was determined by the comparison of the UV peak area of 2 μL-injection of a buffered sample diluted 1:10 with a standard curve of a reference peptide with known concentration. The different UV extinction coefficients of sample and reference peptide were calculated based on the different amino acid sequences and considered in the concentration calculation.
Peptide samples were prepared in solubility buffer system A and solubility was assessed as described in Methods.

The nature of series [3]: Dynamic light scattering, hydrodynamic radius as surrogate for DLS interaction parameter kD. The series is classed as physicochemical. The text has this:
A monochromatic and coherent light beam (laser) is used to illuminate the liquid sample. Dynamic Light Scattering (DLS) measures light scattered from particles (1 nm≤radius≤1 μm) that undergo Brownian motion. This motion is induced by collisions between the particles and solvent molecules that themselves are moving due to their thermal energy. The diffusional motion of the particles results in temporal fluctuations of the scattered light [Pecora, R. Dynamic Light Scattering: Applications of Photon Correlation Spectroscopy, Plenum Press, 1985].
The scattered light intensity fluctuations are recorded and transformed into an autocorrelation function. By fitting the autocorrelation curve to an exponential function, the diffusion coefficient D of the particles in solution can be derived. The diffusion coefficient is then used to calculate the hydrodynamic radius Rh (or apparent Stokes radius) through the Stokes-Einstein equation assuming spherical particles. This calculation is defined in ISO 13321 and ISO 22412 [International Standard ISO13321 Methods for Determination of Particle Size Distribution Part 8: Photon Correlation Spectroscopy, International Organisation for Standardisation (ISO) 1996; International Standard ISO22412 Particle Size Analysis—Dynamic Light Scattering, International Organisation for Standardisation (ISO) 2008].
For every peptide solution, the hydrodynamic radius Rh and the diffusion constant D (related via the Stokes-Einstein equation) were determined as an average over triplicates. Both parameters were determined at different peptide concentrations (e.g., Rh1 and D1: 1 mg/ml and Rh5 and D5: 5 mg/ml) in the same buffer system. The difference of these parameters between low and high peptide concentration is a surrogate for the DLS interaction parameter kD. Rh5<Rh1 or D5>D1 correspond to kD>0 and therefore to repulsive inter-particle interactions that result in improved physical (or colloidal) stability.
DLS buffer system A) 25 mM acetate buffer pH 4.5, 3 mg/mL L-Methionine, 2.7 mg/mL m-cresol, 18 mg/mL Glycerol 85%
DLS Method C: DLS measurements were performed on a DynaPro Plate Reader II (Wyatt Technology, Santa Barbara, Calif., US) and using one of the following black, low volume, and non-treated plates: polystyrene 384 assay plate with clear bottom (Corning, N.Y., US), polystyrene 96 assay plate with clear bottom (Corning, N.Y., US), cyclo olefin polymer (COP) 384 assay plate with clear bottom (Aurora, Mont., US), or polystyrene 384 assay plate with clear bottom (Greiner Bio-One, Germany). The data were processed with the Dynamics software provided by Wyatt Technology. Parameters of the particle size distribution were determined with non-negatively constrained least squares (NNLS) methods using DynaLS algorithms. Measurements were taken at 25° C. with an 830 nm laser light source at an angle of 158°.
The hydrodynamic radius Rh of peptide samples was determined at different peptide concentrations (1 mg/ml and 5 mg/ml) in DLS buffer system A using DLS method C as described in Methods as surrogate for the DLS interaction parameter kD.

T1 sequence (P47871 26-477): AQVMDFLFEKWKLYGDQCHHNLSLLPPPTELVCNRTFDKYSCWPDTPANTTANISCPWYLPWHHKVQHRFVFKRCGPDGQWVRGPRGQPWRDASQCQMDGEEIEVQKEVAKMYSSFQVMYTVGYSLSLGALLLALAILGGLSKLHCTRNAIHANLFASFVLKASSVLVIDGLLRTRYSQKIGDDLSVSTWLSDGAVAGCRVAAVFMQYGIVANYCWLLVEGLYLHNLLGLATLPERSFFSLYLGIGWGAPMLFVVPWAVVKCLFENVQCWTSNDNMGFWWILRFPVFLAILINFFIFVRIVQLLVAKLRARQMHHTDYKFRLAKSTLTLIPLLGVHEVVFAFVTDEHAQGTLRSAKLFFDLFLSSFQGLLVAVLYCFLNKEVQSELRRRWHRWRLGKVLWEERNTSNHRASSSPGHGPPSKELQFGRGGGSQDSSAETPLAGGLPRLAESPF

As usually defined, the EC50 is the midpoint of the concentration-response curve. As a reminder, the solubility is the concentration that dissolves in the medium under given conditions. Low values mean little dissolved substance, high ones much dissolved substance. For the compound `CCCCCCCCCCCCCCCC(=O)N[C@@H](CCC(=O)N[C@@H](CCC(=O)NCCCC[C@H](NC(=O)[C@H](CC(C)C)NC(=O)[C@H](CCCCN)NC(=O)[C@H](CO)NC(=O)[C@H](CC(C)C)NC(=O)[C@H](CC(=O)O)NC(=O)[C@H](CO)NC(=O)[C@@H](NC(=O)[C@H](Cc1ccccc1)NC(=O)[C@@H](NC(=O)CNC(=O)[C@H](Cc1c[nH]cn1)NC(=O)C(C)(C)NC(=O)[C@@H](N)Cc1c[nH]cn1)[C@@H](C)O)[C@@H](C)O)C(=O)N[C@@H](CCC(=O)O)C(=O)N[C@@H](CCC(=O)O)C(=O)N[C@@H](CCC(N)=O)C(=O)N[C@@H](CCCNC(=N)N)C(=O)N[C@@H](CCC(N)=O)C(=O)N[C@@H](CCCCN)C(=O)N[C@@H](CCC(=O)O)C(=O)N[C@@H](Cc1ccccc1)C(=O)N[C@H](C(=O)N[C@@H](CCC(=O)O)C(=O)N[C@@H](Cc1c[nH]c2ccccc12)C(=O)N[C@@H](CC(C)C)C(=O)N[C@@H](CCCCN)C(=O)N[C@@H](C)C(=O)NCC(=O)NCC(=O)N1CCC[C@H]1C(=O)N1CCC[C@H]1C(=O)N[C@@H](CO)C(=O)NC(C)(C)C(=O)N[C@@H](CCCCN)C(=O)N1CCC[C@H]1C(=O)N1CCC[C@H]1C(=O)N1CCC[C@H]1C(=O)N[C@@H](CCCCN)C(N)=O)[C@@H](C)CC)C(=O)O)C(=O)O` [SEQ ID NO: 8, H-Aib-H-G-T-F-T-S-D-L-S-K-L-K[gGlu-gGlu-Palm]-E-E-Q-R-Q-K-E-F-I-E-W-L-K-A-G-G-P-P-S-Aib-K-P-P-P-K-NH2], in series [1], the EC50 amounted to 2 pM. This compound also displayed a solubility at 1 h in series [2] of 9500 µg/mL (≈ 1940 µM). In series [3] (DLS buffer system A pH 4.5), the “Delta Rh [nm] = Rh5 − Rh1” value was −0.4 nm. The “Rh1 [nm] c = 1 mg/ml” value in series [3] (hydrodynamic radius, 1 mg/ml, DLS buffer system A pH 4.5, method C, 25° C.) is recorded as 3.0 nm. Moreover, the “Rh5 [nm] c = 5 mg/ml” value in series [3] (hydrodynamic radius, 5 mg/ml, DLS buffer system A pH 4.5, method C, 25° C.) worked out at 2.6 nm.
Turning to `CCCCCCCCCCCCCCCC(=O)N[C@@H](CCC(=O)N[C@@H](CCC(=O)NCCCC[C@H](NC(=O)[C@H](CC(C)C)NC(=O)[C@H](CCCCN)NC(=O)[C@H](CO)NC(=O)[C@H](CC(C)C)NC(=O)[C@H](CC(=O)O)NC(=O)[C@H](CO)NC(=O)[C@@H](NC(=O)[C@H](Cc1ccccc1)NC(=O)[C@@H](NC(=O)CNC(=O)[C@H](Cc1c[nH]cn1)NC(=O)C(C)(C)NC(=O)[C@@H](N)Cc1c[nH]cn1)[C@@H](C)O)[C@@H](C)O)C(=O)N[C@@H](CCC(=O)O)C(=O)N[C@@H](CCC(=O)O)C(=O)N[C@@H](CCC(N)=O)C(=O)N[C@@H](CCCNC(=N)N)C(=O)N[C@@H](CCC(N)=O)C(=O)NC(C)(C)C(=O)N[C@@H](CCC(=O)O)C(=O)N[C@@H](Cc1ccccc1)C(=O)N[C@H](C(=O)N[C@@H](CCC(=O)O)C(=O)N[C@@H](Cc1c[nH]c2ccccc12)C(=O)N[C@@H](CC(C)C)C(=O)N[C@@H](CCCCN)C(=O)N[C@@H](C)C(=O)N[C@H](C)C(=O)NCC(=O)N1CCC[C@H]1C(=O)N1CCC[C@H]1C(=O)N[C@@H](CO)C(=O)NC(C)(C)C(=O)N[C@@H](CCCCN)C(=O)N1CCC[C@H]1C(=O)N1CCC[C@H]1C(=O)N1CCC[C@H]1C(=O)N[C@@H](CCCCN)C(N)=O)[C@@H](C)CC)C(=O)O)C(=O)O` [SEQ ID NO: 11, H-Aib-H-G-T-F-T-S-D-L-S-K-L-K[gGlu-gGlu-Palm]-E-E-Q-R-Q-Aib-E-F-I-E-W-L-K-A-dAla-G-P-P-S-Aib-K-P-P-P-K-NH2] (H-H[Aib]HGTFTSDLSKLK([γGlu-γGlu-Palmitoyl])EEQRQ[Aib]EFIEWLKA[dA]GPPS[Aib]KPPPK-NH2), the EC50 in series [1] is 2.1 pM. In series [2], this compound gave a solubility at 1 h of over 9800 µg/mL.
